US10040804B2, “Compounds targeting proteins, compositions, methods, and uses thereof” (BioTheryX, Inc., priority 2016, dated 2018)

Key:
IL-1β = IL-1β expression in LPS stimulated PBMCs (Meso Scale); assay type: cell-based, human; conditions: Homo sapiens, PBMC, compound concentration 1 μM
Procedure, shortened: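 Human PBMCs (200,000 cells/well in RPMI-1640/10% FBS) were pretreated with compound for 1 h, then stimulated with 100 ng/mL LPS for 18-24 h. IL-1β in supernatant was measured by Meso Scale assay. Activity is expressed as percentage of LPS-induced level, with DMSO-treated wells as negative control.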

IL-6 = IL-6 expression in LPS stimulated PBMCs (Meso Scale); assay type: cell-based, human; conditions: Homo sapiens, PBMC; compound concentration 1 μM; LPS-stimulated PBMCs
Procedure, shortened: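 Thawed human PBMCs at 200,000 cells/well in RPMI-1640/10% FBS were pretreated with compound or DMSO for 1 h, then stimulated with 100 ng/mL LPS for 18–24 h. Supernatant IL-6 was measured by Meso Scale assay and expressed as % of LPS-induced activity.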

IL-2 = assay: anti-CD3-induced IL-2 secretion in PBMCs; assay type: cell-based; conditions: Homo sapiens, PBMC; compound concentration 1 μM; anti-CD3 stimulated PBMCs, 24 h; DMSO = 1.0; read-out: Fold Change IL-2
Procedure, shortened: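 PBMCs stimulated on plates coated with 1 ug/mL anti-CD3 (OKT3), with compound or DMSO, 24 h. Supernatant IL-2 measured by Mesoscale; activity expressed as fold difference from DMSO-stimulated control.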

TNF-α = TNF-α expression in LPS stimulated PBMCs (Meso Scale); assay type: cell-based, human; conditions: Homo sapiens, PBMC, compound concentration 1 μM
Procedure, shortened: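 Thawed primary human PBMCs, 200,000 cells/well in RPMI-1640/10% FBS, pretreated with compound 1 h, then stimulated with 100 ng/mL LPS for 18-24 h. Supernatant TNF-α measured by Meso Scale assay; activity expressed as percentage of LPS-induced level, DMSO as negative control.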

GSPT1 = molecular target: T1, GSPT1 (Homo sapiens, UniProt P15170); assay: GSPT1 protein levels by Western Blot analysis; assay type: cell-based; conditions: DMSO = 100.00; for remaining activity at 0.1 µM: 100 nM compound concentration; for remaining activity at 1 µM: 1 μM compound concentration
T1 construct: Whole cell extracts were prepared using RIPA buffer according to manufacturer's protocol (Pierce); endogenous in cells
T1 sequence (P15170 whole entry): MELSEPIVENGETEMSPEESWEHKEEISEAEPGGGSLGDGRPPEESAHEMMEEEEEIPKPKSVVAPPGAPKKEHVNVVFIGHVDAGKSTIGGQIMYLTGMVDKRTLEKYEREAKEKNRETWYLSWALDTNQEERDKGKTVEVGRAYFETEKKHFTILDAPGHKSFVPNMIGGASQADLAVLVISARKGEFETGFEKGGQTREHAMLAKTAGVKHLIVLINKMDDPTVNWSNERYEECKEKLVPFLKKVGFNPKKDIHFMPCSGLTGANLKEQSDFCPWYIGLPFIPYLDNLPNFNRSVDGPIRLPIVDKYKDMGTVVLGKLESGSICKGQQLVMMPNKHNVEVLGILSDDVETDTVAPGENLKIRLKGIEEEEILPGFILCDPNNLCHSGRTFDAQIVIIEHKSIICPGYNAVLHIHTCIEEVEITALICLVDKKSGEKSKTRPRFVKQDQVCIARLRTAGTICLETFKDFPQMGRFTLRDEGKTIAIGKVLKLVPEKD
T1 sequence (Q96SW2 whole entry, further chain): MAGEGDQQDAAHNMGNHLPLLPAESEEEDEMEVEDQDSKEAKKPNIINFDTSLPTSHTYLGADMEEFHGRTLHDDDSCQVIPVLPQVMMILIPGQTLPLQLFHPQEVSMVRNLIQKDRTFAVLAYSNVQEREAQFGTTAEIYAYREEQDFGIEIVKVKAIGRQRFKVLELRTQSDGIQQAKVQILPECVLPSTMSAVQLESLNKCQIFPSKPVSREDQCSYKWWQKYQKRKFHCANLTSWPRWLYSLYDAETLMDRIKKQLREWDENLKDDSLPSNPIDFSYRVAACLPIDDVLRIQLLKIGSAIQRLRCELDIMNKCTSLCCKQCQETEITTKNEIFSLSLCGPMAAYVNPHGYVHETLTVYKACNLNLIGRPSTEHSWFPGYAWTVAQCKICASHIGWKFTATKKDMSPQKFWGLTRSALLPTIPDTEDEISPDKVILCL
T1 sequence (Q16531 whole entry partner): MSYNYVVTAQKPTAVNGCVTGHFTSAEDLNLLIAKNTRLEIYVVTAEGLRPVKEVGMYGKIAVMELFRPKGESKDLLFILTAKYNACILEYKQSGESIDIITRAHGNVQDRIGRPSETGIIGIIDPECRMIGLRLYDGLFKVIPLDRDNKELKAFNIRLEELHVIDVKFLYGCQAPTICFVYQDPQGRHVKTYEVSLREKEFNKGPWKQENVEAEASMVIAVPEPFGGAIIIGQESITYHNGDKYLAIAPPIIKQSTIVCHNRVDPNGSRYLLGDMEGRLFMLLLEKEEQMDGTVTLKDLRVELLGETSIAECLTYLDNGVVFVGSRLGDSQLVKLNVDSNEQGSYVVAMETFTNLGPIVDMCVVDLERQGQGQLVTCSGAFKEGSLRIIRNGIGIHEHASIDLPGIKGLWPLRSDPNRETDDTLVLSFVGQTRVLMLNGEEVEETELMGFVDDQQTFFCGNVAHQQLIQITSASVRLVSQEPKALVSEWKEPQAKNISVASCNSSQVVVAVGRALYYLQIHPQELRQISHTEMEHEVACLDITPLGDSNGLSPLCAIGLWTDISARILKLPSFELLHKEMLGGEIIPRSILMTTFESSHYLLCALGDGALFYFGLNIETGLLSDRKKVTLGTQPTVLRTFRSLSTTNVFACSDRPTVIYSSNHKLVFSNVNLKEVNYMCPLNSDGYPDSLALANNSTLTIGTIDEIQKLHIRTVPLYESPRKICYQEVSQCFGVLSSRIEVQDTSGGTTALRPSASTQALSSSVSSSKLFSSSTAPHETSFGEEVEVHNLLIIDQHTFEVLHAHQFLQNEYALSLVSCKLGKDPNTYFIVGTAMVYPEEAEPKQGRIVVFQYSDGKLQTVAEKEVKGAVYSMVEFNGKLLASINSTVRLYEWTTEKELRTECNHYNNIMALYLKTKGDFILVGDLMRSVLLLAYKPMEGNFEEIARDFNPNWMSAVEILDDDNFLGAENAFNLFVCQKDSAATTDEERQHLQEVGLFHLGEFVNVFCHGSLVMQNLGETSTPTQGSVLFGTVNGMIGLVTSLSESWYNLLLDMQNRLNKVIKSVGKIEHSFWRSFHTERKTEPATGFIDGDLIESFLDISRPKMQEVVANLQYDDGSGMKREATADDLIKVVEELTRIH
Procedure, shortened: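 Molm-13 AML cells in RPMI 1640 with 10% FBS, about 10^6 cells/mL, treated with compound or DMSO for 6-8 h. RIPA whole-cell lysates resolved by SDS-PAGE, blotted and probed for GSPT1 with β-actin reference; IRDye secondary antibodies quantified by LI-COR Odyssey infrared imaging.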

MDA-MB-231 cells = assay: MDA-MB-231 cell viability (CellTiter-Glo); assay type: cell-based; conditions: Homo sapiens, 72 h, 3 days, DMSO = 100.00; for viability at 1 µM: 1 μM compound concentration; for viability at 10 µM: 10 μM compound concentration
Procedure, shortened: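 Cells in DMEM with 10% FBS, seeded at 10,000 per well, exposed to compound (0.1% DMSO control) for 3 days at 37° C, 5% CO2. Viability read by CellTiter-Glo luminescence after 10 min shaking.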

Molm-13 cells = assay: Molm-13 cell viability (CellTiter-Glo); assay type: cell-based; conditions: Homo sapiens, MOLM-13, read-out: % Inhibition (MOLM-13 Cell Viability); for cytotoxicity at 10 µM: compound concentration 10 μM; for cytotoxicity at 0.3 µM: compound concentration 0.3 μM
Procedure, shortened: (§1)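 Molm-13 (RPMI-1640, 10% FBS) and H1048 (DMEM:F12, 5% FBS with supplements) plated at 20,000 cells/well, treated with compound or 0.1% DMSO for 3 days at 37° C., 5% CO2. Viability read by CellTiter-Glo luminescence after 10 min.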

H1048 cells = assay: H1048 cell viability (CellTiter-Glo); assay type: cell-based; conditions: Homo sapiens, NCI-H1048, 72 h, H1048, 3 days, DMSO = 100.00; for viability at 1 µM: 1 μM compound concentration; for viability at 10 µM: 10 μM compound concentration
Procedure, shortened: as §1

Compound	inhibition at 1 µM (IL-1β)	inhibition at 1 µM (IL-6)	fold induction at 1 µM (IL-2)	inhibition at 1 µM (TNF-α)	remaining activity at 0.1 µM (GSPT1)	remaining activity at 1 µM (GSPT1)	viability at 1 µM (MDA-MB-231 cells)	viability at 10 µM (MDA-MB-231 cells)	cytotoxicity at 10 µM (Molm-13 cells)	viability at 1 µM (H1048 cells)	viability at 10 µM (H1048 cells)	cytotoxicity at 0.3 µM (Molm-13 cells)	cytotoxicity at 0.02 µM (Molm-13 cells; compound concentration 0.02 μM)	cytotoxicity at 0.8 µM (Molm-13 cells; compound concentration 0.8 μM)	cytotoxicity at 0.1 µM (Molm-13 cells; compound concentration 0.1 μM)
Cc1ccc(CNC(=O)NCc2scc3c2CN([C@H]2CCCC(=O)NC2=O)C3=O)cc1Cl [Compound 34, (S)-1-(3-Chloro-4-methylbenzyl)-3-((5-(2,7-dioxoazepan-3-yl)-4-oxo-5,6-dihydro-4H-thieno[3,4-c]pyrrol-1-yl)methyl)urea]	70%	39%	1.6	69%	84.9%	37.5%	102%	44.4%	99%	12.9%	8.34%	–	–	–	–
Cc1ccc(NC(=O)NCc2cc3c(s2)C(=O)N([C@H]2CCCC(=O)NC2=O)C3)cc1Cl [Compound 35, (S)-1-(3-Chloro-4-methylphenyl)-3-((5-(2,7-dioxoazepan-3-yl)-6-oxo-5,6-dihydro-4H-thieno[2,3-c]pyrrol-2-yl)methyl)urea]	44%	16%	1.4	39%	112%	44.5%	99%	64.8%	93%	15.5%	12.4%	–	–	–	–
Cc1cc(C)c(NC(=O)NCc2scc3c2CN([C@H]2CCCC(=O)NC2=O)C3=O)cc1Cl [Compound 36, (S)-1-(5-Chloro-2,4-dimethylphenyl)-3-((5-(2,7-dioxoazepan-3-yl)-4-oxo-5,6-dihydro-4H-thieno[3,4-c]pyrrol-1-yl)methyl)urea]	40%	38%	0.8	33%	92.9%	32.6%	101%	53.4%	100%	10.6%	7.51%	–	–	–	–
Cc1ccc(NC(=O)NCc2scc3c2CN([C@H]2CCCC(=O)NC2=O)C3=O)cn1 [Compound 37, (S)-1-((5-(2,7-Dioxoazepan-3-yl)-4-oxo-5,6-dihydro-4H-thieno[3,4-c]pyrrol-1-yl)methyl)-3-(6-methylpyridin-3-yl)urea]	4%	3%	1.1	6%	124%	154%	106%	97.7%	51%	55%	10.5%	–	–	–	–
Cc1ccc(NC(=O)NCc2scc3c2CN([C@H]2CCCC(=O)NC2=O)C3=O)cc1C(F)(F)F [Compound 38, (S)-1-((5-(2,7-Dioxoazepan-3-yl)-4-oxo-5,6-dihydro-4H-thieno[3,4-c]pyrrol-1-yl)methyl)-3-(4-methyl-3-(trifluoromethyl)phenyl)urea]	84%	94%	0.6	87%	49%	5.52%	54.7%	27.6%	–	8.35%	7.89%	50%	–	–	–
Cc1ccc(CNC(=O)NCc2cc3c(s2)C(=O)N([C@H]2CCCC(=O)NC2=O)C3)cc1Cl [Compound 39, (S)-1-(3-Chloro-4-methylbenzyl)-3-((5-(2,7-dioxoazepan-3-yl)-6-oxo-5,6-dihydro-4H-thieno[2,3-c]pyrrol-2-yl)methyl)urea]	24%	0%	1.4	18%	87.4%	96%	105%	101%	9%	58.3%	19.9%	–	–	–	–
Cc1ccc(NC(=O)NCc2cc3c(s2)C(=O)N(C2CCC(=O)NC2=O)C3)cc1Cl (stereo not shown) [Compound 40, 1-(3-Chloro-4-methylphenyl)-3-((5-(2,6-dioxopiperidin-3-yl)-6-oxo-5,6-dihydro-4H-thieno[2,3-c]pyrrol-2-yl)methyl)urea]	37%	17%	0.3	34%	46%	40%	57.7%	50%	–	12.9%	13.6%	–	50%	–	–
Cc1ccc(NC(=S)NCc2scc3c2CN([C@H]2CCCC(=O)NC2=O)C3=O)cc1Cl [Compound 41]	89%	95%	0.3	90%	55.2%	6.4%	58.2%	30%	–	9.42%	9.37%	50%	–	–	–
Cc1ccc(NC(=O)NCc2scc3c2CN([C@H]2CCCC(=O)NC2=O)C3=O)cc1C(C)C [Compound 42, (S)-1-((5-(2,7-Dioxoazepan-3-yl)-4-oxo-5,6-dihydro-4H-thieno[3,4-c]pyrrol-1-yl)methyl)-3-(3-isopropyl-4-methylphenyl)urea]	91%	97%	0.4	90%	50.7%	8.44%	57.6%	30.5%	–	8.7%	8.68%	–	–	50%	–
Cc1c(Cl)cc(NC(=O)NCc2scc3c2CN([C@H]2CCCC(=O)NC2=O)C3=O)cc1C(C)C [Compound 43, (S)-1-(3-Chloro-5-isopropyl-4-methylphenyl)-3-((5-(2,7-dioxoazepan-3-yl)-4-oxo-5,6-dihydro-4H-thieno[3,4-c]pyrrol-1-yl)methyl)urea]	73%	88%	0.5	77%	56%	14.2%	55.2%	23.7%	100%	7.97%	7.63%	–	–	–	–
Cc1ccc(CNC(=O)NCc2cc3c(s2)C(=O)N(C2CCC(=O)NC2=O)C3)cc1Cl (stereo not shown) [Compound 44, 1-(3-Chloro-4-methylbenzyl)-3-((5-(2,6-dioxopiperidin-3-yl)-6-oxo-5,6-dihydro-4H-thieno[2,3-c]pyrrol-2-yl)methyl)urea]	45%	6%	1	41%	57.3%	53.6%	64.6%	56.5%	–	13.8%	14.3%	–	–	–	50%
